Test results from ChEMBL document CHEMBL4483862, “Open-source discovery of chemical leads for next-generation chemoprotective antimalarials” (2018).
pIC50: −log10 of the molar value.

Tested on: Plasmodium berghei
Assay: Luciferase/luciferin-expressing antifolate-resistant parasites were used to infect a culture of HepG2 cells that were pre-incubated with compounds. Infected hepatocytes emit light due to the luciferase reaction. Assay results are presented as the percent inhibition of light emission compared to control. […]
Format: functional
Conditions: sporozoite; for IC90: read-out: LUCIFERASE INFECTION ASSAY - IC90

Row | Structure (SMILES) | IC90 [µM] | also measured
1 | O=C(O)COc1cc(-c2ccccc2)nc2ccccc12 | 4.53 | pIC50 (HEPG2TOX_HILL_SLOPE 2.22, HEPG2TOX_R_SQUARED 0.747, PBLUC_HILL_SLOPE 12.7, PBLUC_R_SQUARED 0.342, read-out: LUCIFERASE INFECTION ASSAY - IC50): 5.42
2 | Oc1ccc(-c2cnc3cnc(-c4ccc(Cl)cc4)cn23)cc1 | 4.61 | pIC50 (HEPG2TOX_HILL_SLOPE 2.24, HEPG2TOX_R_SQUARED 0.991, PBLUC_HILL_SLOPE 6.34, PBLUC_R_SQUARED 0.684, read-out: LUCIFERASE INFECTION ASSAY - IC50): 5.49
3 | CCC(C)NC(=O)c1c(NC(=O)c2cc(OC)cc(OC)c2)nc2ccc(C)cn12 (stereo not given) | 2.79 | pIC50 (HEPG2TOX_HILL_SLOPE 2.24, HEPG2TOX_R_SQUARED 0.668, PBLUC_HILL_SLOPE 45.5, PBLUC_R_SQUARED 0.204, read-out: LUCIFERASE INFECTION ASSAY - IC50): 5.58
4 | CS(=O)(=O)c1ccc(CN2CCN3C(C(=O)Nc4ccc(F)c(Cl)c4)=COC3=NC2=O)cc1 | > 10 | pIC50 (HEPG2TOX_HILL_SLOPE 2.2, HEPG2TOX_R_SQUARED 0.936, PBLUC_HILL_SLOPE 1.17, PBLUC_R_SQUARED 0.243, read-out: LUCIFERASE INFECTION ASSAY - IC50): < 5.00
5 | O=C(Nc1cccc(C(F)(F)F)c1)Nc1ncc([N+](=O)[O-])s1 | 2.73 | pIC50 (HEPG2TOX_HILL_SLOPE 2.24, HEPG2TOX_R_SQUARED 0.981, PBLUC_HILL_SLOPE 1.72, PBLUC_R_SQUARED 0.576, read-out: LUCIFERASE INFECTION ASSAY - IC50): 6.12
6 | CCCCn1nc(C(=O)NNC(=O)Nc2ccc([N+](=O)[O-])cc2)c2ccccc2c1=O | > 10 | pIC50 (HEPG2TOX_HILL_SLOPE 2.25, HEPG2TOX_R_SQUARED 0.286, read-out: LUCIFERASE INFECTION ASSAY - IC50): < 5.00
7 | Cc1ccsc1/C=N/Nc1ccc([N+](=O)[O-])cc1S(=O)(=O)Nc1ccc(Cl)cc1 | 3.77 | pIC50 (HEPG2TOX_HILL_SLOPE 2.24, HEPG2TOX_R_SQUARED 0.991, PBLUC_HILL_SLOPE 12.9, PBLUC_R_SQUARED 0.191, read-out: LUCIFERASE INFECTION ASSAY - IC50): 5.50
8 | Clc1ccc(SCc2cc(N3CCCC3)nc(-c3ccccn3)n2)cc1 | 2.94 | pIC50 (HEPG2TOX_HILL_SLOPE 2.23, HEPG2TOX_R_SQUARED 0.944, PBLUC_HILL_SLOPE 20.5, PBLUC_R_SQUARED 0.394, read-out: LUCIFERASE INFECTION ASSAY - IC50): 5.58
9 | Cc1ccc2nc(NC(=O)c3cc(F)ccc3F)c(C(=O)NC3CCCC3)n2c1 | 3 | pIC50 (HEPG2TOX_HILL_SLOPE 2.24, HEPG2TOX_R_SQUARED 0.919, PBLUC_HILL_SLOPE 5.13, PBLUC_R_SQUARED 0.447, read-out: LUCIFERASE INFECTION ASSAY - IC50): 5.71
10 | O=C(Nc1nc2ccccn2c1C(=O)NC1CCCC1)c1cc(F)ccc1F | 6.63 | pIC50 (HEPG2TOX_HILL_SLOPE 2.22, HEPG2TOX_R_SQUARED 0.565, PBLUC_HILL_SLOPE 4.18, PBLUC_R_SQUARED 0.45, read-out: LUCIFERASE INFECTION ASSAY - IC50): 5.41
11 | Cc1ccn2cc(C(=O)N3CCN(Cc4ccc(C(F)(F)F)cc4)CC3)nc2c1 | 3.77 | pIC50 (HEPG2TOX_HILL_SLOPE 2.22, HEPG2TOX_R_SQUARED 0.687, PBLUC_HILL_SLOPE 18.4, PBLUC_R_SQUARED 0.747, read-out: LUCIFERASE INFECTION ASSAY - IC50): 5.47
12 | c1ccc2cc(-c3cc4ccccc4[nH]3)ccc2c1 | > 13.6 | pIC50 (HEPG2TOX_HILL_SLOPE 2.23, HEPG2TOX_R_SQUARED 0.773, PBLUC_HILL_SLOPE 13.6, PBLUC_R_SQUARED 0.0646, read-out: LUCIFERASE INFECTION ASSAY - IC50): 4.91
13 | CC(=O)O[C@H]1C[C@@H](O[C@@H]2C(C)O[C@H](O[C@@H]3C(C)O[C@@H](O[C@H]4CC[C@@]5(C)C(CCC6C5C[C@@H](O)[C@]5(C)[C@@H](C7=CC(=O)OC7)CC[C@]65O)C4)C[C@@H]3O)C[C@@H]2O)OC(C)[C@H]1O[C@@H]1O[C@H](CO)[C@@H](O)[C@H](O)[C@H]1O (stereo not given in full) | > 3.35 | pIC50 (HEPG2TOX_HILL_SLOPE 2.2, HEPG2TOX_R_SQUARED 0.634, PBLUC_HILL_SLOPE 2.28, PBLUC_R_SQUARED 0.618, read-out: LUCIFERASE INFECTION ASSAY - IC50): 5.80
14 | COc1ccc(-n2ncc(C(=O)Nc3nc(-c4ccc5ccccc5c4)cs3)c2C(F)(F)F)nn1 | 2.93 | pIC50 (HEPG2TOX_HILL_SLOPE 2.25, 10.1, HEPG2TOX_R_SQUARED 0.989, 0.350, PBLUC_HILL_SLOPE 1.53, 1.53, PBLUC_R_SQUARED 0.682, 0.949, read-out: LUCIFERASE INFECTION ASSAY - IC50): 6.16
15 | N#CC(C(=O)c1ccc(Br)s1)c1nc2ccccc2s1 (stereo not given) | 3.8 | pIC50 (HEPG2TOX_HILL_SLOPE 2.2, HEPG2TOX_R_SQUARED 0.729, PBLUC_HILL_SLOPE 11.3, 11.3, PBLUC_R_SQUARED 0.872, 0.879, read-out: LUCIFERASE INFECTION ASSAY - IC50): 5.50
16 | Cn1c(-c2ccccc2)nc2cnc(-c3cccc(Cl)c3)cc21 | 3.69 | pIC50 (HEPG2TOX_HILL_SLOPE 2.23, HEPG2TOX_R_SQUARED 0.754, PBLUC_HILL_SLOPE 11.6, PBLUC_R_SQUARED 0.591, read-out: LUCIFERASE INFECTION ASSAY - IC50): 5.51
17 | COc1cccc(-c2cc3c(Nc4cccc(C(C)C)c4)nccc3[nH]2)c1 | 2.26 | pIC50 (HEPG2TOX_HILL_SLOPE 2.2, HEPG2TOX_R_SQUARED 0.959, PBLUC_HILL_SLOPE 4.36, PBLUC_R_SQUARED 0.354, read-out: LUCIFERASE INFECTION ASSAY - IC50): 5.87
18 | O=C(Nc1ccccc1C(=O)Nc1nc2ccccc2[nH]1)c1cccs1 | > 10 | pIC50 (HEPG2TOX_HILL_SLOPE 2.23, HEPG2TOX_R_SQUARED 0.95, read-out: LUCIFERASE INFECTION ASSAY - IC50): < 5.00
19 | COc1ccccc1NC(=O)/C=c1\s/c(=C\c2ccc(-c3ccccc3F)o2)c(=O)n1C | 3.75 | pIC50 (HEPG2TOX_HILL_SLOPE 2.21, HEPG2TOX_R_SQUARED 0.937, PBLUC_HILL_SLOPE 21.9, PBLUC_R_SQUARED 0.468, read-out: LUCIFERASE INFECTION ASSAY - IC50): 5.47
20 | CN(CC(=O)Nc1ccc(Cl)c(C(F)(F)F)c1)c1nc(CN2CCCCC2)nc2sc3c(c12)CCCC3 | 9.99 | pIC50 (HEPG2TOX_HILL_SLOPE 2.23, HEPG2TOX_R_SQUARED 0.93, PBLUC_HILL_SLOPE 4.09, PBLUC_R_SQUARED 0.44, read-out: LUCIFERASE INFECTION ASSAY - IC50): 5.23
21 | OCc1ccc(-c2cn3c(-c4ccc5ncccc5c4)cnc3cn2)cc1 | 3.45 | pIC50 (HEPG2TOX_HILL_SLOPE 2.22, HEPG2TOX_R_SQUARED 0.955, PBLUC_HILL_SLOPE 5.03, PBLUC_R_SQUARED 0.612, read-out: LUCIFERASE INFECTION ASSAY - IC50): 5.65
22 | CC(Sc1nc(-c2ccccc2)c(-c2ccccc2)o1)C(=O)N1CCCC1 (stereo not given) | 1.48 | pIC50 (HEPG2TOX_HILL_SLOPE 2.22, HEPG2TOX_R_SQUARED 0.0759, PBLUC_HILL_SLOPE 15.7, PBLUC_R_SQUARED 0.556, read-out: LUCIFERASE INFECTION ASSAY - IC50): 5.89
23 | Cc1cccc(Nc2nc(S(=O)(=O)c3ccc(Cl)cc3)c(Cl)s2)c1 | > 10 | pIC50 (HEPG2TOX_HILL_SLOPE 2.2, HEPG2TOX_R_SQUARED 0.986, PBLUC_HILL_SLOPE 2.95, PBLUC_R_SQUARED 0.805, read-out: LUCIFERASE INFECTION ASSAY - IC50): 5.29
24 | COc1cc(OC)c(C(=O)/C=C/c2cccc(C#N)c2)cc1Cl | 4.08 | pIC50 (HEPG2TOX_HILL_SLOPE 2.22, HEPG2TOX_R_SQUARED 0.565, PBLUC_HILL_SLOPE 10.9, PBLUC_R_SQUARED 0.489, read-out: LUCIFERASE INFECTION ASSAY - IC50): 5.48
25 | COc1ccccc1CNc1ccnc2cc(Cl)ccc12 | 3.82 | pIC50 (HEPG2TOX_HILL_SLOPE 2.2, HEPG2TOX_R_SQUARED 0.908, PBLUC_HILL_SLOPE 13.6, PBLUC_R_SQUARED 0.424, read-out: LUCIFERASE INFECTION ASSAY - IC50): 5.49
26 | O=C(c1ccccc1)C1(c2nc3ccccc3s2)Sc2ccccc2C1=O (stereo not given) | 7.72 | pIC50 (HEPG2TOX_HILL_SLOPE 2.24, HEPG2TOX_R_SQUARED 0.913, PBLUC_HILL_SLOPE 6.06, PBLUC_R_SQUARED 0.741, read-out: LUCIFERASE INFECTION ASSAY - IC50): 5.27
27 | O=C(CN(Cc1ccccc1)S(=O)(=O)c1ccc(Cl)cc1)Nc1nnc(C(F)(F)F)s1 | 3.96 | pIC50 (HEPG2TOX_HILL_SLOPE 2.23, HEPG2TOX_R_SQUARED 0.869, PBLUC_HILL_SLOPE 13.4, PBLUC_R_SQUARED 0.351, read-out: LUCIFERASE INFECTION ASSAY - IC50): 5.47
28 | c1csc(-c2cnc3ccc(-c4ccc5c(c4)OCO5)nn23)c1 | > 10 | pIC50 (HEPG2TOX_HILL_SLOPE 2.2, HEPG2TOX_R_SQUARED 0.859, PBLUC_HILL_SLOPE 2.18, PBLUC_R_SQUARED 0.249, read-out: LUCIFERASE INFECTION ASSAY - IC50): 5.34
29 | Clc1cccc(CNc2ncnc3sccc23)c1 | 9.83 | pIC50 (HEPG2TOX_HILL_SLOPE 2.22, HEPG2TOX_R_SQUARED 0.937, PBLUC_HILL_SLOPE 2.28, PBLUC_R_SQUARED 0.461, read-out: LUCIFERASE INFECTION ASSAY - IC50): 5.42
30 | O=c1[nH]n(-c2ccc(Cl)c(Cl)c2)cc1-c1cccc(Cl)c1 | 5.52 | pIC50 (HEPG2TOX_HILL_SLOPE 2.22, HEPG2TOX_R_SQUARED 0.951, PBLUC_HILL_SLOPE 6.3, PBLUC_R_SQUARED 0.659, read-out: LUCIFERASE INFECTION ASSAY - IC50): 5.41
